Measurements reported in patent US6890727B2, “Diagnostic assay for Alzheimer's disease: assessment of Aβ abnormalities” (The General Hospital Corporation, priority 1994, dated 2005).
Where two headings read alike, the source gives them in different places. Each block holds one compound with its values, some of them ahead of it.

What was measured:
[1] = 65Zn2+ binding to immobilized peptide (dot-blot, Scatchard competition analysis); conditions: for zinc binding (in words): dot-blot or blot of tryptic digest probed with ^65Zn^2+
Description: ^65Zn^2+ Binding Studies—Dissolved peptides (1.2 nMol, unless other wise stated) were dot-blotted onto polyvinylidene difluoride membrane (0.2-μm pore size; Pierce Chemical Co.), washed twice with chelating buffer (200 μl×100 mM NaCl, 20 mM Tris-HCl, 1 mM EDTA, pH 7.4), then five times with blocking buffer (200 μl×100 mM NaCl, 20 mM Tris-HCl, 1 mM MnCl2, pH 7.4), and then incubated (60 min, 20° C.) with ^65Zn (unless otherwise stated 130,000 cpm, […] ^65ZnCl2 in 200 μl of blocking buffer±competing metal ion chloride). The dot-blot was then washed with blocking buffer (5×200 μl), the dot excised, placed in a test tube, and assayed by γ-counting (11% efficiency). The equilibration volume for stoichiometry estimates was regarded as 6×200 μl. The 214 nm UV absorbance of the unbound flow-through was assayed to determine the total amount of peptide remaining bound onto the membrane. […] To alter the pH, the ^65Zn incubation was carried out in the presence of 100 mM buffer: MOPS (pH 6.5-7.0), MES (pH 5.0-6.0), acetate (pH 3.5-4.5). The dot-blot apparatus was washed with detergent and EDTA (50 mM) then rinsed and siliconized between use.
Aliquots of Aβ were incubated (60 min) with ^65Zn^2+ in the presence of varying concentrations of unlabeled Zn^2+ (0.01-50 μM total). Values shown are means±S.D., n≧3. […] (FIG. 1b) depicts specificity of the Zn^2+ binding site for various metals. Aβ was incubated (60 min) with ^65 Zn^2+ (157 nM, 138,000 cpm) and competing unlabeled metal ions (50 μM total). […] Percent binding of total counts ^65Zn^2+/min added is corrected for the amounts (in nanomoles) of peptides adhering to the membrane. […] 157 nM ^65Zn (138,000 cpm) is used in this experiment to probe immobilized peptide (1.6 nmol).

[2] = target: T1, Aβ (Homo sapiens, UniProt P05067); assay: G50 gel filtration chromatography of Aβ in presence of metal ions or EDTA; conditions: metal ion 25 μM
T1 construct: purchased Sigma; Bachem (results also replicated with peptide from the Keck Laboratory, Yale); host or cells: chemical synthesis
T1 sequence (P05067 672-711): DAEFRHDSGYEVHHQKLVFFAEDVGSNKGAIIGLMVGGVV
Description: Aβ was stored in aliquots of 0.52 mg/ml in water at −20° C., then kept at 4° C. when thawed. Reagents were mixed without vortex mixing. The incubated Aβ was directly applied to a G50 SF (Pharmacia, Uppsala, Sweden) column (Bio-Rad Econo-Column, 30×0.7 cm) pre-equilibrated with metal salt solution or EDTA (50 μM) in TBS at 20° C. and eluted at 8 ml/h (Wiz peristaltic pump, Isco, Lincoln, Nebr.). Absorbance was measured at 254 and 214 nm (Type 6 optical unit, Isco). The amount of Aβ eluting at various peaks was estimated from the area under the curve. […] Because the sample eluted in a volume of approximately 15 ml, the average concentration of the peptide on the column was 0.8 μM.
To study the effects of protein blocking upon adsorption of β to the chromatography column, a Sephadex G50 SF column which had been characterized previously for Aβ behavior was eluted with 3% bovine serum albumin (BSA) in TBS (50 ml) and equilibrated with non-BSA-containing buffer, subsequent to repeating the Aβ experiments.
The elution points of molecular mass standards and relative assignments of Aβ peak elutions are indicated. Mass standards were blue dextran (2×10^6 kDa, V0=void volume), BSA (66 kDa), carbonic anhydrase (29 kDa), cytochrome c (12.4 kDa), and aprotinin (6.5 kDa). The mass of Aβ is 4.3 kDa. […] Data for experiments performed in the presence of copper were taken from 214 nm readings and corrected for comparison.

[3] = 65Zn2+ binding to immobilized peptide (dot-blot, Scatchard competition analysis); conditions: 74 nM ^65Zn^2+, corrected for peptide on membrane
[4] = tested on: trypsin; assay: Tryptic digestion of Aβ after incubation with Zn2+; type: biochemical; conditions: increasing zinc concentrations
Description: Tryptic Digestion of Aβ-Aβ1-40 (13.9 μg) was incubated with Zn^2+ ([…] in blocking buffer, 1 h, 37° C.) and then digested with trypsin (12 ng, 3 h, 37° C.). The reaction was stopped by adding SDS sample buffer containing phenylmethylsulfonyl fluoride (1 mM), boiling the samples (5 min), and applying the samples to Tris/Tricine gel electrophoresis and transfer. The blot was washed with EDTA, Coomassie-stained, incubated with ^65Zn^2+, individual bands were excised, assayed for ^65Zn^2+ binding, and N-terminal sequenced to confirm the identity of the digestion products. The effects of Zn^2+ (up to 100 μM in TBS) on the activity of trypsin, itself, were assayed by assay of Z-Arg-amido-4-methylcoumarin (Sigma) fluorescent cleavage product and determined to be negligible.
(FIG. 4a) depicts a blot of tryptic digests of Aβ (13.9 μg) after incubation with increasing concentrations of zinc (lane labels, in micromolar), stained by Coomassie Blue. […] The migration of the low molecular size markers (STD) are indicated (in kilodaltons) on the right. (FIG. 4b) depicts ^65Zn^2+ binding to Aβ tryptic digestion products. The blot in 4a was incubated with ^65Zn^2+, the visible bands excised, and the bound counts for each band determined.

[5] = Zinc-induced tinctorial amyloid formation (Congo Red, polarized light); type: physicochemical; conditions: Congo Red
Description: FIGS. 8a and 8b are photographs showing zinc-induced tinctorial amyloid formation. […] The particle diameter is 40μ. […] The experiment was repeated with EDTA (50 μM) substituted for Zn^2+ and yielded no visible material.
The particle diameter is 40μ. […] The experiment was repeated with EDTA (50 μM) substituted for Zn^2+ and yielded no visible material.

[6] = not given; remark: listed apart in the source

- zinc binding (in words) [1]: unable to bind zinc
Compound: 25-35: Aβ fragment covering a region of the carboxyl terminus, residues 25-35 (GSNKGAIIGLM; Amyloid-beta protein 40; UniProt P05067 696-706, looked up, fragment)

Compound: [Ag+2] [Ag^2+]
- reduction in eluted peptide [2]: 60%

Compound: [Al+3] [Al^3+]
- total Zn^2+ concentration with similar or comparable effect on Aβ chromatography [2]: ~3 µM

Compound: [Ba+2] [Ba^2+]
- reduction in eluted peptide [2]: 60%

Compound: [Ca+2] [Ca^2+]
- reduction in eluted peptide [2]: 60%

Compound: [Co+2] [Co^2+]
- total Zn^2+ concentration with similar or comparable effect on Aβ chromatography [2]: ~10 µM

Compound: [Cu+2] [Cu^2+, copper]
- effect on eluted Aβ species (monomer, dimer, polymer) [2]: dramatic increase in Aβ dimerization

Compound: [Fe+2] [Fe^2+]
- total Zn^2+ concentration with similar or comparable effect on Aβ chromatography [2]: ~10 µM

Compound: [Mg+2] [Mg^2+]
- reduction in eluted peptide [2]: 60%

Compound: [Ni+2] [Ni^2+]
- total Zn^2+ concentration with similar or comparable effect on Aβ chromatography [2]: ~10 µM

Compound: [Pb+2] [Pb^2+]
- effect on eluted Aβ species (monomer, dimer, polymer) [2]: most strongly promotes the elution of the monomeric peptide, abolishing high order polymers
- total Zn^2+ concentration with similar or comparable effect on Aβ chromatography [2]: ~0.4 µM

- abolition of ^65Zn^2+ binding to Aβ ([1]; Tris 150 mM): ≈ 50%
- abolition of ^65Zn^2+ binding to Aβ ([1]; Tris 500 mM): ≈ 95%
Compound: NC(CO)(CO)CO [Tris]

- ^65Zn^2+ binding compared with Aβ1-40 [3]: 30 % of Bmax
- zinc binding (in words) [1]: clearly binds zinc
Compound: Aβ1-28: fragment of Aβ, residues 1-28

- zinc binding (in words) [1]: binds zinc
Compound: Aβ6-40: 3.6 kDa tryptic digestion product of Aβ1-40
- effect of zinc on rate of tryptic digestion of the peptide [4]: is inhibited by the presence of zinc

- zinc binding (in words) [1]: does not bind zinc
Compound: Aβ17-40: 2.1 kDa tryptic digestion product of Aβ1-40, equivalent to post-secretase carboxyl-terminal product (LVFFAEDVGSNKGAIIGLMVGGVV; Amyloid-beta protein 40; UniProt P05067 688-711, looked up, fragment)
- effect of zinc on rate of tryptic digestion of the peptide [4]: is not inhibited by increasing zinc concentrations

- zinc binding (in words) [1]: does not interfere with ^65Zn^2+ binding
Compound: gln11: Aβ1-28 where residue 11 is glutamine (DAEFRHDSGYQVHHQKLVFFAEDVGSNK; Amyloid-beta protein 40; UniProt P05067 672-699, looked up, variant E11Q)

Compound: rat Aβ1-40: rat/mouse species of Aβ1-40; Arg→Gly, Tyr→Phe, His→Arg at positions 5, 10 and 13 (DAEFGHDSGFEVRHQKLVFFAEDVGSNKGAIIGLMVGGVV; Amyloid-beta protein 40; UniProt P08592 672-711, looked up)
- peptide aggregated into >0.2μ particles (EDTA, higher peptide concentrations): ≈ 15%
- peptide aggregated into >0.2μ particles (EDTA, peptide 0.8 μM): no detectable aggregation
- peptide aggregated into >0.2μ particles (Zn^2+ 25 μM, peptide 0.8 μM): no aggregation
- peptide aggregated into >0.2μ particles (Zn^2+ 25 μM, peptide 4 μM): 25%
- zinc concentration at which aggregation was observed (peptide 1.6 μM): 25 µM
- zinc concentration up to which the peptide remains stable (peptide 1.6 μM): up to 10 μM
- Zn^2+ concentration inducing amyloid by tinctorial criteria [5]: ≥ 10 µM
- proportion of particles >0.1μ ([6]; EDTA, peptide 1.6 μM): 36%
- proportion of particles >0.22μ ([6]; EDTA, peptide 1.6 μM): 27%
- proportion of particles >0.65μ ([6]; EDTA, peptide 1.6 μM): 25%
- increase of proportion of >0.1μ particles following incubation with Zn^2+ ([6]; Zn^2+ 25 μM vs EDTA): 20%
- increase of proportion of >0.22μ particles following incubation with Zn^2+ ([6]; Zn^2+ 25 μM vs EDTA): 30%
- proportion of particles >0.65μ ([6]; Zn^2+ 25 μM, peptide 1.6 μM): increased only slightly
